19 compounds from patent US9505772B2, “Aromatic ring compound” (TAKEDA PHARMACEUTICAL COMPANY LIMITED, priority 2012, dated 2016) can be followed below.

Test [1] concerns the target T1, human MCHR1 (Homo sapiens, UniProt Q99705).
T1 construct: expressed in transfected cells; host or cells: CHO cell clone 57 (described in WO01/82925); membrane fraction
Kind of test: Human MCH receptor 1 (MCHR1) binding inhibitory activity, binding assay with [125I]-MCH(4-19). The conditions noted are these: test compound 0.1 μM, human MCHR1-expressing CHO cell membrane fraction, read-out: Binding inhibition rate % (0.1 μM). How it is done:
Determination of Human MCH Receptor 1 (MCHR1) Binding Inhibitory Activity of Test Compound Using Binding Assay
1. Preparation of Membrane Fraction
Using human MCHR1(=SLC-1 receptor)-expressing CHO cell clone 57 described in WO01/82925, MCHR1-expressing CHO cellular membrane fractions were prepared by the following method.
In phosphate buffered saline (pH 7.4) supplemented with 5 mM EDTA (ethylenediaminetetraacetic acid) were respectively suspended human MCHR1-expressing CHO cells (1×10^8 cells) and centrifuged. Homogenate buffer (10 mL, 10 mM NaHCO3, 5 mM EDTA, pH 7.5, 0.5 mM PMSF (phenylmethylsulfonyl fluoride), 20 mg/L leupeptin, 4 mg/L E-64, 1 mg/L pepstatin A) was added to the pellets of the cells and, using Polytron Homogenizer, the mixture was homogenated. The supernatant obtained after centrifugation at 400×g for 10 min was further centrifuged at 100,000×g for 1 hr to give precipitate of the membrane fraction. The precipitate were suspended in 2 mL of assay buffer [20 mM Tris-HCl (pH 7.5), 5 mM EDTA, 0.5 mM PMSF, 20 mg/L leupeptin, 4 mg/L E-64, 1 mg/L pepstatin A]. The membrane fractions were suspended in assay buffer to a protein concentration of 2 mg/mL, and after dispensing, preserved at −80° C. and used upon thawing each time when in use.
The MCHR1 ligand binding inhibitory activity of the test compound was determined as follows.
An MCHR1-expressing CHO cellular membrane fraction (173 μL) diluted with an assay buffer was dispensed to a 96 well polypropylene plate (3363, Corning). DMSO solution (2 μL), 33 μM cold MCH(1-19) diluted with DMSO solution (2 μL), or a test compound solution diluted with DMSO solution to various concentrations (2 μL) was added, and lastly, [^125I]-MCH(4-19) diluted with assay buffer (hereinafter, sometimes to be referred to as “hot MCH”, 25 μL) was added to each well. The mixture was reacted with stirring at room temperature for 1 hr, and the plate was set on FilterMate Harvester (PerkinElmer). Using a treating glass filter plate (GF/C, PerkinElmer) with polyethyleneimine, which had been previously set, the plate was suction-filtered and washed three times with washing buffer (50 mM Tris-HCl buffer pH 7.5). The glass filter plate was dried, MicroScinti0 (PerkinElmer) was added at 25 μL/well, and the resulting radioactivity was measured by TopCount liquid scintillation counter (PerkinElmer). The binding inhibition rate of the test compound was calculated by the following formula. Binding inhibition (%)=100−(radioactivity upon addition of test compound and hot MCH−radioactivity upon addition of cold MCH and hot MCH solution)/(radioactivity upon addition of DMSO solution and hot MCH−radioactivity upon addition of cold MCH and hot MCH solution)×100
The binding inhibition rates (%) of test compounds (0.1 μM) as measured using human MCHR1-expressing CHO cell are shown in Table 2.

In test [2] the target is T1, human MCHR1. Kind of test: MCH receptor 1 antagonistic activity, Ca2+ mobilization assay. In kind it is cell-based. Particulars: test compound 0.1 μM; human MCHR1-expressing CHO cells (clone #4); MCH(4-19) 2 nM; read-out: Inhibition rate % (0.1 μM). As for the experimental part:
Measurement of MCH Receptor 1 Antagonistic Activity of Test Compound Using Ca^2+ Mobilization Assay
Using an expression vector plasmid introduced with human MCHR1 gene for expression in animal cells, human MCHR1 gene was introduced into CHO cells (CHO dhfr^−) by Lipofectamine LTX (Invitrogen). The cells were cultured in selection MEMα medium [445 mL of MEMα medium without nucleic acid and added with 5 mL of Penicillin-Streptomycin (Invitrogen) and 50 mL of dialyzed fetal bovine serum]. Colony 24 clones grown in the selection medium, which were human MCHR1 gene-expressing CHO cell candidates, were selected. […] In the following test, this human MCHR1-expressing CHO cell (clone #4) was used. An integrated dispensing function fluorometer (CellLux, PerkinElmer) was used for Ca^2+ mobilization assay. The CHO cells were sown in a 96 well plate (type 3904, Corning) with a black wall and clear well bottom at a density of 20000 cells/well, and cultured in an incubator for about 24 hr at 5% CO2, 37° C. The medium was removed, and the cells were washed with phosphate buffered saline (PBS). A Ca^2+ indicator dye reagent (DOJINDO LABORATORIES, Ca screening no-wash kit Fluo4) was added at 100 μL/well, and the dye was allowed to penetrate into the cell for 30 min in an incubator at 5% CO2, 37° C. The plate was set on a plate reader. First, a test compound solution diluted with an assay buffer [10 mM HEPES (pH 7.4), 1× assay buffer containing 0.1% BSA (DOJINDO LABORATORIES, attached to Ca screening no-wash kit Fluo4)] or DMSO solution was added at 50 μL/well, and then ligand MCH (4-19) peptide (final concentration 2 nM) diluted with assay buffer or DMSO was added at 50 μL/well, during which changes in intracellular fluorescence were measured at 2 second intervals. The antagonistic activity of the test compound was calculated by the following formula and shown as an inhibition rate (%) wherein the intracellular fluorescence activity resulting from the stimulation by the addition of ligand MCH (4-19) peptide was 100% and that of the well added with DMSO solution alone was 0%. inhibitory rate (%)=100−[fluorescence activity upon addition of test compound and MCH(4-19) peptide solution−fluorescence activity upon addition of DMSO solution only]/[fluorescence activity upon addition of DMSO solution and MCH(4-19) peptide solution−fluorescence activity upon addition of DMSO solution only]×100
The inhibition rates (%) of test compounds (0.1 μM) as antagonist activity measured using human MCHR1-expressing CHO cells (clone #4) are shown in the following Table 3.
On the technique in general: Calcium assays in cells follow changes in intracellular calcium, usually with a dye or a luminescent sensor.

T1 sequence (Q99705 whole entry): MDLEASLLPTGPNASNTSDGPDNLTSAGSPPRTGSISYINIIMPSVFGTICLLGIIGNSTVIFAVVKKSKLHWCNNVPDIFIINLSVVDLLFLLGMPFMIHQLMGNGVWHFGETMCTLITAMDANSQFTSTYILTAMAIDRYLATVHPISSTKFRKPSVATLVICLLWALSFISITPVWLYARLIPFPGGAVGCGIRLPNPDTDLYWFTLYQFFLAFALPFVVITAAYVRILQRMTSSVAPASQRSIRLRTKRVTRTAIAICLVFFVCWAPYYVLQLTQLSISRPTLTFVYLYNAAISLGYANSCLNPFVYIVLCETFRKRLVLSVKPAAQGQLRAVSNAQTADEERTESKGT

For `COc1ccc(-n2ccc3oc(-c4ccc(Cl)cc4)cc3c2=O)cc1OC` [Example 2, 2-(4-Chlorophenyl)-5-(3,4-dimethoxyphenyl)furo[3,2-c]pyridin-4(5H)-one], the inhibition (usually the relative decrease from the control value, in per cent) at 0.1 µM was 81% at human MCHR1 [1] and 94% on human MCHR1 [2].
Taken in the same sequence, the figures for `COc1cc(-n2ccc3oc(-c4ccc(Cl)cc4)cc3c2=O)ccc1OCC1(C#N)CC1` [Example 5, 1-((4-(2-(4-Chlorophenyl)-4-oxofuro[3,2-c]pyridin-5(4H)-yl)-2-methoxyphenoxy)methyl)cyclopropanecarbonitrile] were 97% and 100%.
On the same counts, the results for `COc1cc(-n2cnc3oc(-c4ccc(Cl)cc4)cc3c2=O)ccc1OCC1(C#N)CC1` [Example 6, 1-((4-(6-(4-Chlorophenyl)-4-oxofuro[2,3-d]pyrimidin-3(4H)-yl)-2-methoxyphenoxy)methyl)cyclopropanecarbonitrile] are 82% and 37%.
As for `COc1cc(-n2ccc3oc(-c4ccc(Cl)cc4)cc3c2=O)ccc1OCC(C)(C)O` [Example 7, 2-(4-Chlorophenyl)-5-(4-(2-hydroxy-2-methylpropoxy)-3-methoxyphenyl)furo[3,2-c]pyridin-4(5H)-one], the inhibition at 0.1 µM stood at 97% at human MCHR1 [1] and 106% on human MCHR1 [2].
Take `N#CC1(COc2ccc(-n3ccc4oc(-c5ccc(Cl)cc5)cc4c3=O)cc2Cl)CC1` [Example 8, 1-((2-Chloro-4-(2-(4-chlorophenyl)-4-oxofuro[3,2-c]pyridin-5(4H)-yl)phenoxy)methyl)cyclopropanecarbonitrile]: the inhibition at 0.1 µM on human MCHR1 [1] came out at 76%.
For the compound `COc1cc(-n2ccc3oc(-c4ccc(F)cc4)cc3c2=O)ccc1OCC1(C#N)CC1` [Example 10, 1-((4-(2-(4-Fluorophenyl)-4-oxofuro[3,2-c]pyridin-5(4H)-yl)-2-methoxyphenoxy)methyl)cyclopropanecarbonitrile], the values for the inhibition at 0.1 µM on human MCHR1 [1] and at human MCHR1 [2] were 83% and 86%, respectively.
Taken in the same sequence, the figures for `COc1cc(-n2ccc3oc(-c4ccc(Cl)s4)cc3c2=O)ccc1OCC1(C#N)CC1` [Example 12, 1-((4-(2-(5-Chloro-2-thienyl)-4-oxofuro[3,2-c]pyridin-5(4H)-yl)-2-methoxyphenoxy)methyl)cyclopropanecarbonitrile] were 53% and 64%.
For the compound `COc1cc(-n2ccc3oc(-c4ccccc4F)cc3c2=O)ccc1OCC1(C#N)CC1` [Example 15, 1-((4-(2-(2-Fluorophenyl)-4-oxofuro[3,2-c]pyridin-5(4H)-yl)-2-methoxyphenoxy)methyl)cyclopropanecarbonitrile], on human MCHR1 [1], the inhibition at 0.1 µM was determined as 17%.
For `COc1ccc(-c2cc3c(=O)n(-c4ccc(OCC5(C#N)CC5)c(OC)c4)ccc3o2)cc1` [Example 16, 1-((2-Methoxy-4-(2-(4-methoxyphenyl)-4-oxofuro[3,2-c]pyridin-5(4H)-yl)phenoxy)methyl)cyclopropanecarbonitrile], the inhibition at 0.1 µM at human MCHR1 [1] was determined as 79%; at human MCHR1 [2] it was 97%.
Turning to `COc1cc(-n2ccc3oc(-c4ccccc4)cc3c2=O)ccc1OCC1(C#N)CC1` [Example 20, 1-((2-Methoxy-4-(4-oxo-2-phenylfuro[3,2-c]pyridin-5(4H)-yl)phenoxy)methyl)cyclopropanecarbonitrile], at human MCHR1 [1], the inhibition at 0.1 µM came out at 58%.
Turning to `COc1cc(-n2ccc3oc(-c4ccc(F)cn4)cc3c2=O)ccc1OCC1(C#N)CC1` [Example 21, 1-((4-(2-(5-Fluoropyridin-2-yl)-4-oxofuro[3,2-c]pyridin-5(4H)-yl)-2-methoxyphenoxy)methyl)cyclopropanecarbonitrile], the inhibition at 0.1 µM on human MCHR1 [1] was 42%.
Same read-out and setting: the same measure for `COC(=O)c1ccc(-n2ccc3oc(-c4ccc(Cl)cc4)cc3c2=O)cc1OC` [Example 24, Methyl 4-(2-(4-chlorophenyl)-4-oxofuro[3,2-c]pyridin-5(4H)-yl)-2-methoxybenzoate]: 47%; for `COc1cc(-n2ccc3oc(-c4ccc(C(F)(F)F)cc4)cc3c2=O)ccc1OCC1(C#N)CC1` [Example 27, 1-((2-Methoxy-4-(4-oxo-2-(4-(trifluoromethyl)phenyl)furo[3,2-c]pyridin-5(4H)-yl)phenoxy)methyl)cyclopropanecarbonitrile]: 60%.
On the same count and under the same terms, the same measure for `COc1cc(-n2ccc3oc(-c4ccc(Cl)cc4)cc3c2=O)ccc1O` [Example 30, 2-(4-Chlorophenyl)-5-(4-hydroxy-3-methoxyphenyl)furo[3,2-c]pyridin-4(5H)-one]: 66%.
The same measure, in the same setting: the same measure for `COc1cc(-n2ccc3oc(-c4ccc(Cl)cc4)cc3c2=O)ccc1C(=O)NCC1CC1` [Example 45, 4-(2-(4-Chlorophenyl)-4-oxofuro[3,2-c]pyridin-5(4H)-yl)-N-(cyclopropylmethyl)-2-methoxybenzamide]: 74%; for `CCc1cc(-n2ccc3oc(-c4ccc(Cl)cc4)cc3c2=O)ccc1OCC1(C#N)CC1` [Example 47, 1-((4-(2-(4-Chlorophenyl)-4-oxofuro[3,2-c]pyridin-5(4H)-yl)-2-ethylphenoxy)methyl)cyclopropanecarbonitrile]: 74%; for `CCC1(COc2ccc(-n3ccc4oc(-c5ccc(Cl)cc5)cc4c3=O)cc2OC)COC1` [Example 48, 2-(4-Chlorophenyl)-5-(4-((3-ethyloxetan-3-yl)methoxy)-3-methoxyphenyl)furo[3,2-c]pyridin-4(5H)-one]: 71%.
Consider `COc1cc(-n2ccc3oc(-c4ccc(Cl)cc4)cc3c2=O)ccc1OCC(N)=O` [Example 50, 2-(4-(2-(4-Chlorophenyl)-4-oxofuro[3,2-c]pyridin-5(4H)-yl)-2-methoxyphenoxy)acetamide], for which the inhibition at 0.1 µM on human MCHR1 [1] stood at 85%.
The same measure, in the same setting: the same measure for `COc1cc(-n2ccc3oc(-c4ccc(Cl)cc4)cc3c2=O)ccc1OCCCC(N)=O` [Example 51, 4-(4-(2-(4-Chlorophenyl)-4-oxofuro[3,2-c]pyridin-5(4H)-yl)-2-methoxyphenoxy)butanamide]: 90%.
